Where two headings read alike, the source gives them in different places.
Experiments:
26S proteasome = biological target: T1, 26S proteasome (Homo sapiens, UniProt P28074); assay: Proteasome inhibitory activity (Suc-LLVY-amc) in RPMI 8226 cell lysate; type: biochemical
T1 sequence (P28074 60-263): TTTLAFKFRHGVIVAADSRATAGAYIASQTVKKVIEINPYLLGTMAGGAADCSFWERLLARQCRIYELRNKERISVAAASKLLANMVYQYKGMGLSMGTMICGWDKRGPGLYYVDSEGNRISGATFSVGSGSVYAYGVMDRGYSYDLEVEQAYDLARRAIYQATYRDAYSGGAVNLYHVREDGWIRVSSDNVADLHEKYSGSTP
Protocol: RPMI 8226 cells (1 × 10^6 cells/mL) were collected, centrifuged, and washed twice with cold PBS (Gibco). The supernatant was discarded, and 200 μL of ice-cold lysis buffer (NP40 cell lysis buffer (Invitrogen, Eugene, OR, USA), supplemented with 1 mM PMSF (Sigma) and protease inhibitor cocktail (Sigma), was added to the pellet. Cells were kept on ice for 30 min and vortexed every 10 min. Samples were then centrifuged at 4 °C for 10 min at 16,000× g. Supernatant containing the proteins was collected. Protein quantification was performed using the Coomassie (Bradford) Protein Assay Kit (ThermoFisher, Waltham, MA, USA) following the manufacturer instructions. In each well of a 96-well black plate (ThermoFisher), 10 µg of proteins were mixed with assay buffer (50 mM Tris-HCl, pH 7.5, 40 mM KCl, 5 mM MgCl2, 0.5 mM ATP, 1 mM DTT, 0.5 mg/mL BSA) in 180 µL total volume. […] The plate was then incubated for 30 min at 37 °C. After incubation, the reaction was started by adding the fluorometric peptide substrate Suc-LLVY-amc (Bio-Techne, Minneapolis, MN, USA) at a final concentration of 100 µM, except for the blank wells. Following 1 h incubation at 37 °C in the dark, the fluorescence signal was red (excitation: 380 nm, emission: 440–460 nm) using a Cytation 3 plate reader (BioTek). The percentage of 26S proteasome activity was measured by comparing the fluorescence of the sample treated with the vehicle control wells and multiplied by 100. The IC50 value was calculated as mentioned above, and each compound was tested in triplicate in three independent experiments.

RPMI 8226/BTZ100 cells = assay: cells; type: cell-based, human; settings: for IC50: read-out: IC50 Value Antiproliferative Activity RPMI 8226/BTZ100; for Increased resistance (RPMI 8226/BTZ100 vs. RPMI 8226): ratio of IC50 in resistant vs. parental cells
[1] = system: 3D co-culture spheroids containing RPMI 8226 cells and mesenchymal stem cells (MSC) in a 5:1 ratio; assay: Antiproliferative assay in 3D co-culture spheroids (CellTiter-Glo 3D, 48 h); type: cell-based, human; settings: RPMI 8226 + MSC 5:1 spheroids, mean ± SD, n = 3
Protocol: The multiple myeloma human plasma cells RPMI 8226 were purchased from American Type Culture Collection (ATCC, Manassas, VA, USA) and cultured in RPMI 1640 medium (Gibco, Paisley, UK) supplemented with 50 µg/mL streptomycin sulfate, 50 U/mL penicillin G sodium salt (Gibco, Grand Island, NY, USA) and 10% fetal bovine serum (FBS) (Biowest, Nuaillé, France). […] Human MSC from the bone marrow were purchased from PromoCell and were cultured in Mesenchymal Stem Cell Growth Medium 2 (PromoCell, Heidelberg, Germany) supplemented with 100 μg/mL streptomycin sulfate and 100 U/mL penicillin G sodium salt.
RPMI 8226 cells and MSC were mixed in a 5:1 ratio. The cell mixture was centrifuged, and medium containing 20% collagen I (Gibco) adjusted to pH 7 was added to the cell pellet. Five μL drops were plated in each well of an ice-cold 96-well ultra-low attachment U-bottom plate (Corning, Kennebunk, MA, USA) and the plate was incubated for 30 min at 37 °C and 5% CO2 atmosphere. After the incubation, 200 μL of RPMI 1640 medium (Gibco) supplemented with 50 µg/mL streptomycin sulfate, 50 U/mL penicillin G sodium salt (Gibco) and 10% FBS (Biowest) was added to each well. The 3D spheroids were formed after 48 h.
RPMI 8226 and RPMI 8226/BTZ100 cells were seeded in 96-well plates (Costar, Kennebunk, MA, USA) at a density of 15,000 cells per well and directly treated for 72 h with the various compounds using increasing concentrations (0.31–2000 nM). […] Following the treatment, 100 μL of medium was carefully removed from each well and collagenase (1.5 μL of a 100 mg/mL solution, Sigma) was added. The plate was shaken at 37 °C for 10 min at 350 rpm. Then, 100 μL of CellTiter-Glo 3D reagent (Promega, Fitchburg, WI, USA) was added to each well. The plate was incubated for 5 min at 37 °C under agitation at 250 rpm, followed by 25 min at room temperature without agitation. Finally, the luminescence was measured using a Cytation 3 plate reader (BioTek). The percentage of cell proliferation and calculation of the IC50 value were determined as previously described. Each compound was tested in triplicate in three independent experiments.

RPMI 8226 cells = assay: Antiproliferative assay (XTT, 72 h); type: cell-based, human; settings: for IC50: RPMI 8226 cells, 72 h, XTT, mean ± SD, n = 3; for Fold less active than compound 3 in RPMI 8226 cells: compared to compound 3
HDAC = HDAC inhibitory activity in RPMI 8226 cells (MAL substrate, UHPLC-MS); type: cell-based, human; settings: 8 h; for Inhibition of HDAC activity: 10 µM
Protocol: RPMI 8226 cells were seeded in 96-well plates (Costar) at a density of 15,000 cells per well in 25 µL of medium containing the HDAC substrate N-(4-methyl-7-aminocoumarinyl)-Nα-(t-butoxycarbonyl)-Nω-acetyllysineamide (21 µM, MAL, Sigma). The cells were directly treated with the compounds at 10 µM or with Ent (0.4–250 µM) for 8 h to obtain a final volume of 50 µL. […] Following the incubation, the reaction was stopped by adding 10 µL of 6X RIPA buffer, supplemented with protease inhibitor (Sigma). Then, 160 µL of cold acetonitrile were added and the plate was placed for 10 min at −80 °C. The plate was centrifuged at 5000× g for 10 min at 4 °C, and the supernatant was transferred into a UHPLC-adapted 96-well plate (Nunc 96-well plate conical bottom, ThermoFisher) and sealed. The substrate (MAL) and its deacetylated product (dMAL) were measured using a UHPLC-MS method as previously described. The percentage of HDAC inhibition is given by 100 − [(tested sample × 100/control sample)], and the dose-response curve of Ent was established.

[2] = read-out: IC50 Value PI Activity; 26S proteasome in RPMI 8226 cell lysate, 30 min preincubation, Suc-LLVY-amc 100 µM, mean ± SD, n = 3
[3] = RPMI 8226 cells resistant to BTZ, 72 h, XTT, mean ± SD, n = 3
[4] = 26S proteasome in RPMI 8226 cell lysate, 30 min preincubation, Suc-LLVY-amc 100 µM, mean ± SD, n = 3; read-out: IC50 Value PI Activity

SMILES | IC50 (26S proteasome; [2]) | IC50 (RPMI 8226/BTZ100 cells; [3]) | IC50 [1] | IC50 (RPMI 8226 cells) | IC50 (26S proteasome; [4]) | IC50 (RPMI 8226/BTZ100 cells; Homo sapiens, RPMI-8226, 72 h) | IC50 ([1]; Homo sapiens) | Inhibition of HDAC activity (HDAC) | IC50 (RPMI 8226 cells; Homo sapiens) | other results
CC(C)C[C@H](NC(=O)[C@@H](Cc1ccc(N(CCCl)CCCl)cc1)NC(=O)c1cnccn1)B1OC2CC3CC(C3(C)C)[C@]2(C)O1 (stereo partly drawn) [Compound 8, N-((2R)-3-(4-(bis(2-chloroethyl)amino)phenyl)-1-(((1R)-3-methyl-1-((3aS)-3a,5,5-trimethylhexahydro-4,6-methanobenzo[d][1,3,2]dioxaborol-2-yl)butyl)amino)-1-oxopropan-2-yl)pyrazine-2-carboxamide] | 0.0121 ± 0.0011 µM | 1.01 ± 0.0886 µM | 0.03 ± 0.0016 µM | 0.0196 ± 0.0004 µM | – | – | – | – | – | –
CC(C)C[C@H](NC(=O)[C@@H](Cc1ccccc1)NC(=O)c1ccc(C(=O)Nc2ccccc2N)cc1)B1OC2CC3CC(C3(C)C)[C@]2(C)O1 (stereo partly drawn) [Compound 2, N^1-(2-aminophenyl)-N^4-((2R)-1-(((1R)-3-methyl-1-((3aS)-3a,5,5-trimethylhexahydro-4,6-methanobenzo[d][1,3,2]dioxaborol-2-yl)butyl)amino)-1-oxo-3-phenylpropan-2-yl)terephthalamide] | – | – | – | – | 0.0095 ± 0.0023 µM | 0.112 ± 0.013 µM | 0.0325 ± 0.0075 µM | 50% | 0.0371 ± 0.0029 µM | Increased resistance (RPMI 8226/BTZ100 vs. RPMI 8226) (RPMI 8226/BTZ100 cells): 3.0 fold; Fold less active than compound 3 in RPMI 8226 cells (RPMI 8226 cells): ca. 4 times
CC(C)C[C@H](NC(=O)[C@@H](Cc1ccc(N(CCCl)CCCl)cc1)NC(=O)c1cnc(C(=O)Nc2ccccc2N)cn1)B1OC2CC3CC(C3(C)C)[C@]2(C)O1 (stereo partly drawn) [Compound 11, N^2-(2-aminophenyl)-N^5-((2R)-3-(4-(bis(2-chloroethyl)amino)phenyl)-1-(((1R)-3-methyl-1-((3aS)-3a,5,5-trimethylhexahydro-4,6-methanobenzo[d][1,3,2]dioxaborol-2-yl)butyl)amino)-1-oxopropan-2-yl)pyrazine-2,5-dicarboxamide] | > 0.05 µM | 0.462 ± 0.107 µM | 0.0399 ± 0.0121 µM | 0.0229 ± 0.0026 µM | – | – | – | 25% | – | Fold less active than compound 3 in RPMI 8226 cells (RPMI 8226 cells): ~2.4 times
CC(C)C[C@H](NC(=O)[C@@H](Cc1ccccc1)NC(=O)Cc1ccc(C(=O)Nc2ccccc2N)cc1)B1OC2CC3CC(C3(C)C)[C@@]2(C)O1 (stereo partly drawn) [Compound 6, N-(2-aminophenyl)-4-(2-(((2R)-1-(((1R)-3-methyl-1-((3aR)-3a,5,5-trimethylhexahydro-4,6-methanobenzo[d][1,3,2]dioxaborol-2-yl)butyl)amino)-1-oxo-3-phenylpropan-2-yl)amino)-2-oxoethyl)benzamide] | – | – | – | – | > 0.05 µM | – | – | – | 0.337 ± 0.0494 µM | –
CC(C)CC(NC(=O)C(Cc1ccccc1)NC(=O)CCC(=O)NCc1ccc(C(=O)Nc2ccccc2N)cc1)B1OC2CC3CC(C3(C)C)C2(C)O1 [Compound 1, N^1-(4-((2-aminophenyl)carbamoyl)benzyl)-N^4-((2R)-1-(((1R)-3-methyl-1-((3aR)-3a,5,5-trimethylhexahydro-4,6-methanobenzo[d][1,3,2]dioxaborol-2-yl)butyl)amino)-1-oxo-3-phenylpropan-2-yl)succinimide] | – | – | – | – | 0.0103 ± 0.0027 µM | – | – | – | 0.678 ± 0.0425 µM | –
CC(C)C[C@H](NC(=O)[C@@H](Cc1ccccc1)NC(=O)c1cnc(C(=O)NCc2ccc(C(=O)Nc3ccccc3N)cc2)cn1)B1OC2CC3CC(C3(C)C)[C@@]2(C)O1 (stereo partly drawn) [Compound 5, N^2-(4-((2-aminophenyl)carbamoyl)benzyl)-N^5-((2R)-1-(((1R)-3-methyl-1-((3aR)-3a,5,5-trimethylhexahydro-4,6-methanobenzo[d][1,3,2]dioxaborol-2-yl)butyl)amino)-1-oxo-3-phenylpropan-2-yl)pyrazine-2,5-dicarboxamide] | – | – | – | – | 0.0148 ± 0.0025 µM | 0.203 ± 0.0361 µM | 0.0651 ± 0.0141 µM | – | 0.0252 ± 0.0022 µM | Increased resistance (RPMI 8226/BTZ100 vs. RPMI 8226) (RPMI 8226/BTZ100 cells): 8.0 fold
Nc1ccccc1NC(=O)c1ccc(CNC(=O)OCc2cccnc2)cc1 [Ent, entinostat] | – | – | – | – | – | 0.562 ± 0.0517 µM | 0.349 ± 0.133 µM | 51% | 0.329 ± 0.0257 µM | IC50 (HDAC; 0.4–250 µM, read-out: HDAC inhibition IC50): 9.3 ± 0.7 µM
CC(C)C[C@H](NC(=O)[C@@H](Cc1ccc(N(CCCl)CCCl)cc1)NC(=O)c1cnc(Cl)cn1)B1OC2CC3CC(C3(C)C)[C@]2(C)O1 (stereo partly drawn) [Compound 9, N-((2R)-3-(4-(bis(2-chloroethyl)amino)phenyl)-1-(((1R)-3-methyl-1-((3aS)-3a,5,5-trimethylhexahydro-4,6-methanobenzo[d][1,3,2]dioxaborol-2-yl)butyl)amino)-1-oxopropan-2-yl)-5-chloropyrazine-2-carboxamide] | > 0.05 µM | 1.03 ± 0.205 µM | 0.188 ± 0.0425 µM | 0.0376 ± 0.0011 µM | – | – | – | – | – | –
CC(C)C[C@H](NC(=O)c1cnc(C(=O)Nc2ccccc2N)cn1)B1OC2CC3CC(C3(C)C)[C@]2(C)O1 (stereo partly drawn) [Compound 10, N^2-(2-aminophenyl)-N^5-((1R)-3-methyl-1-((3aS)-3a,5,5-trimethylhexahydro-4,6-methanobenzo[d][1,3,2]dioxaborol-2-yl)butyl)pyrazine-2,5-dicarboxamide] | – | – | – | – | > 0.05 µM | – | – | – | > 2 µM | –
CC(C)C[C@H](NC(=O)[C@@H](Cc1ccccc1)NC(=O)c1ccc(C(=O)NCc2ccc(C(=O)Nc3ccccc3N)cc2)cc1)B1OC2CC3CC(C3(C)C)[C@@]2(C)O1 (stereo partly drawn) [Compound 4, N^1-(4-((2-aminophenyl)carbamoyl)benzyl)-N^4-((2R)-1-(((1R)-3-methyl-1-((3aR)-3a,5,5-trimethylhexahydro-4,6-methanobenzo[d][1,3,2]dioxaborol-2-yl)butyl)amino)-1-oxo-3-phenylpropan-2-yl)terephthalamide] | – | – | – | – | > 0.05 µM | – | – | – | 0.802 ± 0.0727 µM | –
